Experimental data: US10457707B2, “Substituted urea depsipeptide analogs as activators of the CLPP endopeptidase” (priority 2015, dated 2019)
In brackets after ≈: the same amount, converted by molar mass. Where two headings read alike, the source gives them in different places. *1 amine or outer side, *2 acyl side, *3 side chain or, on linkers, in order; H or OH if unused. Where a SMILES comes first, the peptide text is derived from it. Bridges are numbered along the chain shown (N, C = ends). [ ]: non-standard residue; d: D form. The star is where a group is joined. ξ: configuration not given here. Phe(3,5-F2) = N[C@@H](Cc1cc(F)cc(F)c1)C(=O)O; NH(1-Me-indolin-5-yl) = CN1CCc2cc(N*)ccc21; NH(4-OCF3-phenyl) = FC(F)(F)Oc1ccc(N*)cc1; Morpholine(3S-CO) = O=C(O)[C@@H]1COCCN1; Pro(4S-Me) = C[C@@H]1CN[C@H](C(=O)O)C1; NH(4-Cl-2-F-phenyl) = Fc1cc(Cl)ccc1N*; Pro(4R-Me) = C[C@H]1CN[C@H](C(=O)O)C1; NH(3,4-Me2-phenyl) = Cc1ccc(N*)cc1C; Hyp = O=C(O)[C@@H]1C[C@@H](O)CN1; NH(4-Me-phenyl) = Cc1ccc(N*)cc1; ξNMeThr = CNC(C(=O)O)[C@@H](C)O; aThr = C[C@H](O)[C@H](N)C(=O)O; Pip = O=C(O)[C@@H]1CCCCN1; NMeA = CN[C@@H](C)C(=O)O; X1 = N#Cc1cc(N*)ccc1F; CO = O=C([*:1])[*:2]; ξP = O=C(O)C1CCCN1

Legend:
Assay type in all cases: cell-based
[1] = test system: Bacillus subtilis, ATCC 23857; assay: Minimal inhibitory concentration assay (microbroth dilution)
Summary of the method: (§1)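 Visual read-out; MIC is the lowest drug concentration with no bacterial growth after overnight aerobic incubation at 37 °C. Compound was tested in two-fold dilutions starting at 200 μM final, with an inoculum of approximately 10^5 cfu/mL, following CLSI microdilution guidance.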

[2] = test system: Staphylococcus aureus, ATCC 29213; assay: as above; settings: ATCC29213, read-out: Minimal Inhibitory Concentrations S. aureus ATCC 29213
Summary of the method: as §1

[3] = test system: Staphylococcus aureus, NRS70; assay: as above
Summary of the method: as §1

[4] = test system: Streptococcus pneumoniae, R6; assay: Minimal inhibitory concentration assay; settings: read-out: Minimal Inhibitory Concentrations S. pneumoniae R6
Summary of the method: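 Microbroth dilution with two-fold serial compound dilutions in broth, incubated aerobically overnight at 37° C. MIC taken as the lowest concentration preventing bacterial growth.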

[5] = Bacillus subtilis, ATCC23857; read-out: Minimal Inhibitory Concentrations B. subtilis ATCC 23857
[6] = Staphylococcus aureus, NRS70; read-out: Minimal Inhibitory Concentrations S. aureus NRS70
[7] = Bacillus subtilis, ATCC23857, read-out: Minimal Inhibitory Concentrations B. subtilis ATCC 23857
[8] = Staphylococcus aureus, NRS70, read-out: Minimal Inhibitory Concentrations S. aureus NRS70

C[C@@H]1NC(=O)[C@H](C)N(C)C(=O)[C@@H]2CCCN2C(=O)[C@@H](NC(=O)[C@H](Cc2ccccc2)NC(=O)Nc2ccc(OC(F)(F)F)cc2)COC(=O)C2CCCN2C1=O (stereo partly drawn) [Compound 213, (2S)-3-phenyl-2-(3-(4-(trifluoromethoxy)phenyl)ureido)-N-((6S,9S,11aS,17S)-6,9,10-trimethyl-5,8,11,16,20-pentaoxohexadecahydro-1H,5H,16H-dipyrrolo[2,1-c:2′,1′-l][1]oxa[4,7,10,13]tetraazacyclohexadecin-17-yl)propanamide] ({NH(4-OCF3-phenyl)-CO}-FSP[NMeA]A[ξP]; ester 2-C)
MIC [1, 5]: < 0.2 µM | MIC [2]: 3.12 µM (≈ 2.46 µg/mL) | MIC [3, 6]: 0.78 µM (≈ 0.614 µg/mL) | MIC [4]: < 0.2 µM

Cc1ccc(NC(=O)N[C@@H](Cc2cc(F)cc(F)c2)C(=O)N[C@@H]2C(=O)N3C[C@H](O)C[C@H]3C(=O)N(C)[C@@H](C)C(=O)N[C@@H](C)C(=O)N3C[C@@H](C)C[C@H]3C(=O)O[C@H]2C)cc1 [Compound 214, (S)-3-(3,5-difluorophenyl)-N-((2S,6S,9S,11aS,13R,17S,18S,20aS)-13-hydroxy-2,6,9,10,18-pentamethyl-5,8,11,16,20-pentaoxohexadecahydro-1H,5H,16H-dipyrrolo[2,1-c:2′,1′-l][1]oxa[4,7,10,13]tetraazacyclohexadecin-17-yl)-2-(3-(p-tolyl)ureido)propanamide] ({NH(4-Me-phenyl)-CO}-[Phe(3,5-F2)][aThr][Hyp][NMeA]A[Pro(4S-Me)]; ester 2-C)
MIC [1, 7]: 0.391 µM (≈ 0.312 µg/mL) | MIC [2]: 0.391 µM (≈ 0.312 µg/mL) | MIC [3, 8]: 0.391 µM (≈ 0.312 µg/mL) | MIC [4]: 0.195 µM (≈ 0.156 µg/mL)

Cc1ccc(NC(=O)N[C@@H](Cc2cc(F)cc(F)c2)C(=O)N[C@@H]2C(=O)N3C[C@H](O)C[C@H]3C(=O)N3CCOC[C@H]3C(=O)N[C@@H](C)C(=O)N3C[C@H](C)C[C@H]3C(=O)O[C@H]2C)cc1C [Compound 215, (S)-3-(3,5-difluorophenyl)-2-(3-(3,4-dimethylphenyl)ureido)-N-((6aS,8R,12S,13S,15aS,17R,21S,23aS)-8-hydroxy-13,17,21-trimethyl-6,11,15,20,23-pentaoxooctadecahydro-6H,11H,15H-[1,4]oxazino[3,4-i]dipyrrolo[2,1-c:2′,1′-l][1]oxa[4,7,10,13]tetraazacyclohexadecin-12-yl)propanamide] ({NH(3,4-Me2-phenyl)-CO}-[Phe(3,5-F2)][aThr][Hyp][Morpholine(3S-CO)]A[Pro(4R-Me)]; ester 2-C)
MIC [1, 7]: 3.1 µM (≈ 2.6 µg/mL) | MIC [2]: 0.4 µM (≈ 0.336 µg/mL) | MIC [3, 8]: 0.8 µM (≈ 0.672 µg/mL) | MIC [4]: < 0.2 µM

C[C@@H]1C[C@H]2C(=O)O[C@@H](C)[C@H](NC(=O)[C@H](Cc3cc(F)cc(F)c3)NC(=O)Nc3ccc4c(c3)CCN4C)C(=O)N3CCC[C@H]3C(=O)N(C)C([C@@H](C)O)C(=O)N[C@@H](C)C(=O)N2C1 (stereo partly drawn) [Compound 311, (S)-3-(3,5-difluorophenyl)-N-((2R,6S,9R,11aS,17S,18S,20aS)-9-((R)-1-hydroxyethyl)-2,6,10,18-tetramethyl-5,8,11,16,20-pentaoxohexadecahydro-1H,5H,16H-dipyrrolo[2,1-c:2′,1′-l][1]oxa[4,7,10,13]tetraazacyclohexadecin-17-yl)-2-(3-(1-methylindolin-5-yl)ureido)propanamide] ({NH(1-Me-indolin-5-yl)-CO}-[Phe(3,5-F2)][aThr]P[ξNMeThr]A[Pro(4R-Me)]; ester 2-C)
MIC [1, 7]: 0.313 µM (≈ 0.267 µg/mL) | MIC [2]: 0.156 µM (≈ 0.133 µg/mL) | MIC [3, 8]: 0.156 µM (≈ 0.133 µg/mL) | MIC [4]: 0.078 µM (≈ 0.0665 µg/mL)

C[C@@H]1C[C@H]2C(=O)O[C@@H](C)[C@H](NC(=O)[C@H](Cc3cc(F)cc(F)c3)NC(=O)Nc3ccc4c(c3)CCN4C)C(=O)N3CCC[C@H]3C(=O)N3CCOC[C@H]3C(=O)N[C@@H](C)C(=O)N2C1 [Compound 312, (S)-3-(3,5-difluorophenyl)-2-(3-(1-methylindolin-5-yl)ureido)-N-((6aS,12S,13S,15aS,17R,21S,23aS)-13,17,21-trimethyl-6,11,15,20,23-pentaoxooctadecahydro-6H,11H,15H-[1,4]oxazino[3,4-i]dipyrrolo[2,1-c:2′,1′-l][1]oxa[4,7,10,13]tetraazacyclo-hexadecin-12-yl)propanamide] ({NH(1-Me-indolin-5-yl)-CO}-[Phe(3,5-F2)][aThr]P[Morpholine(3S-CO)]A[Pro(4R-Me)]; ester 2-C)
MIC [1, 7]: 0.313 µM (≈ 0.266 µg/mL) | MIC [2]: 0.156 µM (≈ 0.133 µg/mL) | MIC [3, 8]: 0.078 µM (≈ 0.0664 µg/mL) | MIC [4]: 0.078 µM (≈ 0.0664 µg/mL)

C[C@@H]1C[C@H]2C(=O)O[C@@H](C)[C@H](NC(=O)[C@H](Cc3cc(F)cc(F)c3)NC(=O)Nc3ccc(Cl)cc3F)C(=O)N3CCC[C@H]3C(=O)N(C)C([C@@H](C)O)C(=O)N[C@@H](C)C(=O)N2C1 (stereo partly drawn) [Compound 313, (S)-2-(3-(4-chloro-2-fluorophenyl)ureido)-3-(3,5-difluorophenyl)-N-((2R,6S,9R,11aS,17S,18S,20aS)-9-((R)-1-hydroxyethyl)-2,6,10,18-tetramethyl-5,8,11,16,20-pentaoxohexadecahydro-1H,5H,16H-dipyrrolo[2,1-c:2′,1′-l][1]oxa[4,7,10,13]tetraazacyclohexadecin-17-yl)propanamide] ({NH(4-Cl-2-F-phenyl)-CO}-[Phe(3,5-F2)][aThr]P[ξNMeThr]A[Pro(4R-Me)]; ester 2-C)
MIC [1, 5]: < 0.02 µM | MIC [2]: < 0.02 µM | MIC [3, 6]: < 0.02 µM | MIC [4]: < 0.02 µM

C[C@@H]1C[C@H]2C(=O)O[C@@H](C)[C@H](NC(=O)[C@H](Cc3cc(F)cc(F)c3)NC(=O)Nc3ccc(Cl)cc3F)C(=O)N3CCC[C@H]3C(=O)N3CCOC[C@H]3C(=O)N[C@@H](C)C(=O)N2C1 [Compound 314, (S)-2-(3-(4-chloro-2-fluorophenyl)ureido)-3-(3,5-difluorophenyl)-N-((6aS,12S,13S,15aS,17R,21S,23aS)-13,17,21-trimethyl-6,11,15,20,23-pentaoxooctadecahydro-6H,11H,15H-[1,4]oxazino[3,4-i]dipyrrolo[2,1-c:2′,1′-l][1]oxa[4,7,10,13]tetraazacyclo-hexadecin-12-yl)propanamide] ({NH(4-Cl-2-F-phenyl)-CO}-[Phe(3,5-F2)][aThr]P[Morpholine(3S-CO)]A[Pro(4R-Me)]; ester 2-C)
MIC [1, 5]: < 0.02 µM | MIC [2]: < 0.02 µM | MIC [3, 6]: < 0.02 µM | MIC [4]: < 0.02 µM

C[C@@H]1C[C@H]2C(=O)O[C@@H](C)[C@H](NC(=O)[C@H](Cc3cc(F)cc(F)c3)NC(=O)Nc3ccc4c(c3)CCN4C)C(=O)N3C[C@H](O)C[C@H]3C(=O)N3CCOC[C@H]3C(=O)N[C@@H](C)C(=O)N2C1 [Compound 315, (S)-3-(3,5-difluorophenyl)-N-((6aS,8R,12S,13S,15aS,17R,21S,23aS)-8-hydroxy-13,17,21-trimethyl-6,11,15,20,23-pentaoxooctadecahydro-6H,11H,15H-[1,4]oxazino[3,4-i]dipyrrolo[2,1-c:2′,1′-l][1]oxa[4,7,10,13]tetraazacyclohexadecin-12-yl)-2-(3-(1-methylindolin-5-yl)ureido)propanamide] ({NH(1-Me-indolin-5-yl)-CO}-[Phe(3,5-F2)][aThr][Hyp][Morpholine(3S-CO)]A[Pro(4R-Me)]; ester 2-C)
MIC [1, 7]: 20 µM (≈ 17.3 µg/mL) | MIC [2]: 5 µM (≈ 4.33 µg/mL) | MIC [3, 8]: 5 µM (≈ 4.33 µg/mL) | MIC [4]: 0.313 µM (≈ 0.271 µg/mL)

C[C@@H]1C[C@H]2C(=O)O[C@@H](C)[C@H](NC(=O)[C@H](Cc3cc(F)cc(F)c3)NC(=O)Nc3ccc(Cl)cc3F)C(=O)N3C[C@H](O)C[C@H]3C(=O)N3CCOC[C@H]3C(=O)N[C@@H](C)C(=O)N2C1 [Compound 316, (S)-2-(3-(4-chloro-2-fluorophenyl)ureido)-3-(3,5-difluorophenyl)-N-((6aS,8R,12S,13S,15aS,17R,21S,23aS)-8-hydroxy-13,17,21-trimethyl-6,11,15,20,23-pentaoxooctadecahydro-6H,11H,15H-[1,4]oxazino[3,4-i]dipyrrolo[2,1-c:2′,1′-l][1]oxa[4,7,10,13]tetraazacyclo-hexadecin-12-yl)propanamide] ({NH(4-Cl-2-F-phenyl)-CO}-[Phe(3,5-F2)][aThr][Hyp][Morpholine(3S-CO)]A[Pro(4R-Me)]; ester 2-C)
MIC [1, 5]: 0.313 µM (≈ 0.271 µg/mL) | MIC [2]: 0.078 µM (≈ 0.0674 µg/mL) | MIC [3, 6]: 0.078 µM (≈ 0.0674 µg/mL) | MIC [4]: < 0.02 µM

Cc1ccc(NC(=O)N[C@@H](Cc2cc(F)cc(F)c2)C(=O)N[C@H]2COC(=O)[C@@H]3C[C@@H](C)CN3C(=O)[C@H](C)NC(=O)C3CCCCN3C(=O)[C@@H]3C[C@@H](O)CN3C2=O)cc1 (stereo partly drawn) [Compound 323, (S)-3-(3,5-difluorophenyl)-N-((2R,6S,8aR,14aS,16R,20S,23aS)-16-hydroxy-2,6-dimethyl-5,8,14,19,23-pentaoxooctadecahydro-1H,5H,14H,19H-pyrido[2,1-i]dipyrrolo[2,1-c:2′,1′-l][1]oxa[4,7,10,13]tetraazacyclohexadecin-20-yl)-2-(3-(p-tolyl)ureido)propanamide]
MIC [1, 7]: 0.313 µM (≈ 0.253 µg/mL) | MIC [2]: 0.625 µM (≈ 0.506 µg/mL) | MIC [3, 8]: 0.625 µM (≈ 0.506 µg/mL) | MIC [4]: 0.078 µM (≈ 0.0632 µg/mL)

C[C@@H]1C[C@H]2C(=O)O[C@@H](C)[C@H](NC(=O)[C@H](Cc3cc(F)cc(F)c3)NC(=O)Nc3ccc(F)c(C#N)c3)C(=O)N3CCC[C@H]3C(=O)N3CCCC[C@H]3C(=O)N[C@@H](C)C(=O)N2C1 [Compound 324, (S)-2-(3-(3-cyano-4-fluorophenyl)ureido)-3-(3,5-difluorophenyl)-N-((2R,6S,8aS,14aS,20S,21S,23aS)-2,6,21-trimethyl-5,8,14,19,23-pentaoxooctadecahydro-1H,5H,14H,19H-pyrido[2,1-i]dipyrrolo[2,1-c:2′,1′-l][1]oxa[4,7,10,13]tetraazacyclo-hexadecin-20-yl)propanamide] ({X1-CO}-[Phe(3,5-F2)][aThr]P[Pip]A[Pro(4R-Me)]; ester 2-C)
MIC [1, 5]: 0.625 µM (≈ 0.523 µg/mL) | MIC [2]: 0.313 µM (≈ 0.262 µg/mL) | MIC [3, 6]: 0.313 µM (≈ 0.262 µg/mL) | MIC [4]: 0.625 µM (≈ 0.523 µg/mL)
